{
  "source": "BindingDB's records for doi:10.1016/j.bmcl.2006.12.086",
  "about": "(Valeant Pharmaceuticals Research and Development, 2007)",
  "data": [
    {"molecular_target": "Serine/threonine-protein kinase pim-1 (Homo sapiens, UniProt P11309)", "sequence (P11309 whole entry)": "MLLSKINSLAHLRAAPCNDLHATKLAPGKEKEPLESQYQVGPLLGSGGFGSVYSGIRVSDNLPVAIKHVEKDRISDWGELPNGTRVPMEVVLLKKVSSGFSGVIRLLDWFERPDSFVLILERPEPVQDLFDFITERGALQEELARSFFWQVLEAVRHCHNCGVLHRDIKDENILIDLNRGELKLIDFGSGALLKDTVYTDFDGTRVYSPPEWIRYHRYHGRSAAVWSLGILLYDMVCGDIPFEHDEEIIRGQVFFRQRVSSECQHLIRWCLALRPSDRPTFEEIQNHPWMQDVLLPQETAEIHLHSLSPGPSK", "test": "Radioactive Filter Plate Assay", "conditions": "pH 7.5; 23 °C", "protocol": "PIM-1 kinase activity was evaluated using calf thymus histones as the substrate in a 96-well filter plate format. After incubation, the plate was washed and dried. The scintillation cocktail was added and the radioactivity counted on a TopCount plate reader (Perkin-Elmer).", "units": {"IC50": "nM"}, "values": [
      {"smiles": "N#Cc1c(-c2cccs2)cc(-c2cccs2)nc1O", "note": "[2-oxo-4,6-bis(thiophen-2-yl)-1,2-dihydropyridine-3-carbonitrile]", "IC50": 990},
      {"smiles": "N#Cc1c(-c2cccs2)cc(C(F)(F)F)[nH]c1=O", "note": "[2-oxo-4-(thiophen-2-yl)-6-(trifluoromethyl)-1,2-dihydropyridine-3-carbonitrile]", "IC50": 3540},
      {"smiles": "N#Cc1c(-c2cccs2)c2c([nH]c1=O)-c1ccccc1OC2", "note": "[4-oxo-6-(thiophen-2-yl)-9-oxa-3-azatricyclo[8.4.0.0^{2,7}]tetradeca-1(14),2(7),5,10,12-pentaene-5-carbonitrile]", "IC50": 460},
      {"smiles": "N#Cc1c(-c2cccs2)c2c([nH]c1=O)-c1ccccc1SC2", "note": "[4-oxo-6-(thiophen-2-yl)-9-thia-3-azatricyclo[8.4.0.0^{2,7}]tetradeca-1(10),2(7),5,11,13-pentaene-5-carbonitrile]", "IC50": 1490},
      {"smiles": "N#Cc1c(C(F)(F)F)cc(-c2ccco2)[nH]c1=O", "note": "[6-(furan-2-yl)-2-oxo-4-(trifluoromethyl)-1,2-dihydropyridine-3-carbonitrile]", "IC50": 16000},
      {"smiles": "N#Cc1c(-c2ccco2)c2c([nH]c1=O)-c1ccccc1OC2", "note": "[6-(furan-2-yl)-4-oxo-9-oxa-3-azatricyclo[8.4.0.0^{2,7}]tetradeca-1(14),2(7),5,10,12-pentaene-5-carbonitrile]", "IC50": 870}
    ]}
  ]
}
